One data set has as its target Albumin (Homo sapiens, UniProt P02768). Briefly: Binding affinity to human serum albumin in 100 mM phosphate buffer at pH 7.4 assessed as formation of biotin-LC-hydrazide labeled protein carbonyls at 100 uM pretreated 60 mins before biotin-LC-hydrazide challenge measured after 60 mins by SDS-PAGE/Western blotting. Particulars: isolated protein, pH 7.4, 1 h; call rule not given here. Type of data set: ADME. For orientation: A western blot detects proteins with antibodies after separation by electrophoresis.

Data set [1] is described as follows: Chemical stability in 100 mM phosphate buffer at pH 7.4 at 100 uM after 60 mins by HPLC analysis. Type of data set: physicochemical. To be noted: pH 7.4, 1 h.

Sequence of Albumin (P02768 whole entry): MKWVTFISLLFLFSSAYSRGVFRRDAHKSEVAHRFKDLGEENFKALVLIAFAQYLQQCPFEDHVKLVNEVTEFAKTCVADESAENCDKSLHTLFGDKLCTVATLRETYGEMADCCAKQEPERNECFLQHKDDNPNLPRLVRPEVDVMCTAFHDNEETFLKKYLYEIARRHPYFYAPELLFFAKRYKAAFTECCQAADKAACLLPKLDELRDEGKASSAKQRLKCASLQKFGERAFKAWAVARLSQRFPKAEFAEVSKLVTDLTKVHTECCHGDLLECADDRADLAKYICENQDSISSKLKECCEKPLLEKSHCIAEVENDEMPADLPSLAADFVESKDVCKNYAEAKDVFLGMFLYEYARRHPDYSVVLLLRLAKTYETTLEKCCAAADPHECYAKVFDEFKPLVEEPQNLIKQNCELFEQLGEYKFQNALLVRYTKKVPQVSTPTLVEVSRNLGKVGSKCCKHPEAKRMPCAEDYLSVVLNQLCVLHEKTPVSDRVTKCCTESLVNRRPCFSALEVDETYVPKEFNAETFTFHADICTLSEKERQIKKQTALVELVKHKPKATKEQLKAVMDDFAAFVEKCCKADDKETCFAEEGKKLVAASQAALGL

Regarding `COc1c(O)cc([C@H]2Oc3cc(O)cc(O)c3C[C@H]2OC(=O)c2cc(O)c(O)c(O)c2)cc1O`, the result on Albumin was Active. Also, the Stability entry in data set [1] is on record as “Stable”.

In the case of `COc1c(O)cc(C(=O)O[C@@H]2Cc3c(O)cc(O)cc3O[C@@H]2c2cc(O)c(O)c(O)c2)cc1O`, the outcome on Albumin was Active.

As for `COc1cc(C(=O)O[C@@H]2Cc3c(O)cc(O)cc3O[C@@H]2c2cc(O)c(O)c(O)c2)cc(O)c1O`, the result on Albumin was Active. The Stability entry in data set [1] was “Unstable”.

With `O=C(O)c1cccc(O)c1O` [2,3-DIHYDROXYBENZOIC ACID], the Activity entry on Albumin is “Not Active”.

Regarding `O=C(O)c1cc(O)cc(O)c1` [3,5-DIHYDROXYBENZOIC ACID], the Activity result at Albumin was “Not Active”.

For `Oc1cc(O)c2c(c1)O[C@H](c1ccc(O)c(O)c1)[C@H](O)C2` [(-)-EPICATECHIN], the result on Albumin was Active. In addition, the Stability entry in data set [1] is “Stable”.

With `O=C(O[C@@H]1Cc2c(O)cc(O)cc2O[C@@H]1c1ccc(O)c(O)c1)c1cc(O)c(O)c(O)c1` [EPICATECHIN GALLATE], on Albumin, the outcome was Active. In addition, the Stability entry in data set [1] is “Stable”.

As to `Oc1cc(O)c2c(c1)O[C@H](c1cc(O)c(O)c(O)c1)[C@H](O)C2` [EPIGALLOCATECHIN], the result on Albumin was Active. Besides, the Stability result in data set [1] is given as “Unstable”.

As for `O=C(O[C@@H]1Cc2c(O)cc(O)cc2O[C@@H]1c1cc(O)c(O)c(O)c1)c1cc(O)c(O)c(O)c1` [EPIGALOCATECHIN GALLATE], the result on Albumin was Active. For the same compound, the Stability entry in data set [1] is given as “Unstable”.

With `COC(=O)c1cc(O)c(O)c(O)c1` [GALLIC ACID METHYL ESTER], the Activity entry on Albumin is listed as “Not Active”.

Regarding `O=C(O)c1ccc(O)c(O)c1` [PROTOCATECHUIC ACID], the Activity entry at Albumin is “Not Active”.

Consider `Oc1cccc(O)c1O` [PYROGALLOL], for which the result at Albumin was Active.

The values are drawn from ChEMBL document CHEMBL1177689, “Structural characteristics of green tea catechins for formation of protein carbonyl in human serum albumin” (Bioorg Med Chem, 2010).
